The text below walks through data of patent US6514911B1, “Substituted oxadiazines useful as pesticides” (Uniroyal Chemical Company, Inc., priority 2002, dated 2003).

Holding throughout (assay type): in vivo
For assay [1], the system named is barnyardgrass (Echinochloa crus-galli (L.) Beauv.) (BG). The assay can be described thus: Preemergence herbicide test, soil drench, barnyardgrass. The settings on record: 10 lbs/A (11.2 kg/ha) soil drench, two weeks after treatment, vs untreated checks; for pest or weed control at 11208.5 g/ha: Echinochloa crus-galli, 336 h, read-out: Percent Weed Control BG. As for the experimental part:
(§1) To illustrate the effectiveness of the previously described substituted oxadiazines of this invention as preemergence herbicides, 300 mg of the chemical was dissolved in a composition comprising 10 mL acetone to which 30 mg of tile emulsifying agent, ethoxylated sorbitan monolaurate, was added. The solution was diluted to 100 mL with distilled water. Ten milliliters of this 3000 ppm solution was diluted to 250 ppm with distilled water. The chemical was applied at the rate of 10 pounds/acre (11.2 kg/ha) by drenchings 46 mL of the 250 ppm solution on the surface of soil in 4½ inch (11.25 cm) plastic pots wherein seeds of the following weeds had been planted: barnyardgrass (Echinochloa crus-galli (L.) Beauv.) (BG), and The percent control of the weeds compared to untreated checks was determined two weeks after treatment. TABLE 1 summarizes the results achieved with compounds formulated as indicated above, and the data clearly indicate the good to excellent herbicidal efficacy of compositions of this invention.

Assay [2] deals with jimsonweed (Datura stramonium L.) (JW). Description: Preemergence herbicide test, soil drench, jimsonweed. The settings on record: 10 lbs/A (11.2 kg/ha) soil drench, two weeks after treatment, vs untreated checks. As for the experimental part: as §1, with “jimsonweed (Datura stramonium L.) (JW),” for “barnyardgrass (Echinochloa crus-galli (L.) Beauv.) (BG), and”
The test system of assay [3] is velvetleaf (Abutilon theophrasti Medik.) (VL). Description: Preemergence herbicide test, soil drench, velvetleaf. The settings on record: 10 lbs/A (11.2 kg/ha) soil drench, two weeks after treatment, vs untreated checks; for pest or weed control at 11208.5 g/ha: Abutilon theophrasti, 336 h, read-out: Percent Weed Control VL. As for the experimental part: as §1, with “velvetleaf (Abutilon theophrasti Medik.) (VL),” for “barnyardgrass (Echinochloa crus-galli (L.) Beauv.) (BG), and”

In assay [4] the test system is green foxtail (Setaria virdis (L.) Beauv.) (GF). The assay can be described thus: Preemergence herbicide test, soil drench, green foxtail. Particulars: 10 lbs/A (11.2 kg/ha) soil drench, two weeks after treatment, vs untreated checks; for pest or weed control at 11208.5 g/ha: Setaria, 336 h, read-out: Percent Weed Control GF. As for the experimental part: as §1, with “41⁄2” for “4½”, “green foxtail (Setaria […].)” for “barnyardgrass (Echinochloa crus-galli (L.)”, “(GF).” for “(BG), and”

The test system of assay [5] is tall morningglory (Ipomoea purpurea (L.) Roth) (TM). Description: Preemergence herbicide test, soil drench, tall morningglory. The settings on record: 10 lbs/A (11.2 kg/ha) soil drench, two weeks after treatment, vs untreated checks; for pest or weed control at 11208.5 g/ha: Ipomoea, 336 h, read-out: Percent Weed Control TM. As for the experimental part:
as §1, with “tall morningglory (Ipomoea purpurea” for “barnyardgrass (Echinochloa crus-galli”, “Roth) (TM),” for “Beauv.) (BG), and”

Assay [6] deals with switchgrass (Panicum virgahim L.) (SG). The assay can be described thus: Preemergence herbicide test, soil drench, switchgrass. Particulars: 10 lbs/A (11.2 kg/ha) soil drench, two weeks after treatment, vs untreated checks; for pest or weed control at 11208.5 g/ha: Panicum, 336 h, read-out: Percent Weed Control SG. As for the experimental part:
To illustrate the effectiveness of the previously described substituted oxadiazines of this invention as preemergence herbicides, 300 mg of the chemical was dissolved in a composition comprising 10 mL acetone to which 30 mg of tile emulsifying agent, ethoxylated sorbitan monolaurate, was added. The solution was diluted to 100 mL with distilled water. Ten milliliters of this 3000 ppm solution was diluted to 250 ppm with distilled water. The chemical was applied at the rate of 10 pounds/acre (11.2 kg/ha) by drenchings 46 mL of the 250 ppm solution on the surface of soil in 4½ inch (11.25 cm) plastic pots wherein seeds of the following weeds had been planted:
switchgrass (Panicum virgahim L.) (SG),
(§2) The percent control of the weeds compared to untreated checks was determined two weeks after treatment. TABLE 1 summarizes the results achieved with compounds formulated as indicated above, and the data clearly indicate the good to excellent herbicidal efficacy of compositions of this invention.

Assay [7] has as its system prickly sida (Sida spinosa L.) (PS). Description: Preemergence herbicide test, soil drench, prickly sida. Particulars: 10 lbs/A (11.2 kg/ha) soil drench, two weeks after treatment, vs untreated checks; for pest or weed control at 11208.5 g/ha: Sida spinosa, 336 h, read-out: Percent Weed Control PS. The method, then: To illustrate the effectiveness of the previously described substituted oxadiazines of this invention as preemergence herbicides, 300 mg of the chemical was dissolved in a composition comprising 10 mL acetone to which 30 mg of tile emulsifying agent, ethoxylated sorbitan monolaurate, was added. The solution was diluted to 100 mL with distilled water. Ten milliliters of this 3000 ppm solution was diluted to 250 ppm with distilled water. […]
prickly sida (Sida spinosa L.) (PS),
as §2

Consider `FC(F)(F)C1=NC(C(F)(F)F)(C(F)(F)F)N=C(c2ccc(Cl)cc2)O1` [Compound 5, 2-(4-chlorophenyl)-4,4,6-tris(trifluoromethyl)-4H-1,3,5-oxadiazine], for which the pest or weed control at 11208.5 g/ha in assay [1], in assay [3], in assay [4], in assay [5] and in assay [6] was 100% throughout. Besides, the “Percent Weed Control JW” value in assay [2] amounted to 100%.

Regarding `FC(F)(F)c1ccc(C2=NC(C(F)(F)F)(C(F)(F)F)N=C(C(F)(F)C(F)(F)F)O2)cc1` [Compound 15], in assay [7], the “Percent Weed Control PS” value is 100%. Besides, the “Percent Weed Control BG” value in assay [1] is reported as 100%. Further, in assay [3], the “Percent Weed Control VL” value turned out to be 100%. The “Percent Weed Control GF” value in assay [4] is 100%. Moreover, the “Percent Weed Control TM” value in assay [5] is 100%. The “Percent Weed Control SG” value in assay [6] is given as 100%.

Take `Fc1ccc(C2=NC(C(F)(F)F)(C(F)(F)F)N=C(C(F)(F)C(F)(F)F)O2)cc1` [Compound 17, 2-(4-fluorophenyl)-6-(pentafluoroethyl)-4,4-bis(trifluoromethyl)-4H-1,3,5-oxadiazine]: the pest or weed control at 11208.5 g/ha in assay [7] was found to be 100%; in assay [1], 100%; in assay [3], 100%; in assay [4] it was 50%; in assay [5], 100%; in assay [6], 50%.

Consider `FC(F)(F)c1cc(C2=NC(C(F)(F)F)(C(F)(F)F)N=C(C(F)(F)C(F)(F)F)O2)cc(C(F)(F)F)c1` [Compound 18, 2-{3,5-bis(trifluoromethyl)phenyl}-6-(pentafluoroethyl)-4,4-bis(trifluoromethyl)-4H-1,3,5-oxadiazine], for which the pest or weed control at 11208.5 g/ha in assay [7], in assay [1], in assay [3], in assay [4], in assay [5] and in assay [6] was 100% each time.

In the case of `Fc1cc(F)cc(C2=NC(C(F)(F)F)(C(F)(F)F)N=C(C(F)(F)C(F)(F)F)O2)c1` [Compound 19, 2-(3,5-difluorophenyl)-6-(pentafluoroethyl)-4,4-bis(trifluoromethyl)-4H-1,3,5-oxadiazine], the pest or weed control at 11208.5 g/ha in assay [7], in assay [1], in assay [3], in assay [4], in assay [5] and in assay [6] was 100% in each case.

Take `FC(F)(F)C(F)(F)C(F)(F)C1=NC(C(F)(F)F)(C(F)(F)F)N=C(c2ccc(Br)cc2)O1` [Compound 27, 2-(4-bromophenyl)-6-(heptafluoropropyl)-4,4-bis(trifluoromethyl)-4H-1,3,5-oxadiazine]: the pest or weed control at 11208.5 g/ha in assay [7] turned out to be 100%; in assay [1], 0%; in assay [3], 100%; in assay [4], 0%; in assay [5], 95%; in assay [6], 0%.

In the case of `Fc1ccc(C2=NC(C(F)(F)F)(C(F)(F)F)N=C(C(F)(F)C(F)(F)C(F)(F)F)O2)cc1` [Compound 28, 2-(4-fluorophenyl)-6-(heptafluoropropyl)-4,4-bis(trifluoromethyl)-4H-1,3,5-oxadiazine], the pest or weed control at 11208.5 g/ha was 100% in assay [7]; 0% in assay [1]; 100% in assay [3]; 0% in assay [4]; 100% in assay [5]; 0% in assay [6].

`FC(F)(F)c1cccc(C2=NC(C(F)(F)F)(C(F)(F)F)N=C(C(F)(F)C(F)(F)C(F)(F)F)O2)c1` [Compound 29, 2-(heptafluoropropyl)-4,4-bis(trifluoromethyl)-6-{(3-trifluoromethyl)phenyl}-4H-1,3,5-oxadiazine]: the “Percent Weed Control PS” value in assay [7] is 100%. Besides, in assay [1], the “Percent Weed Control BG” value was 100%. Moreover, the “Percent Weed Control VL” value in assay [3] was 100%. Besides, in assay [4], the “Percent Weed Control GF” value came to 100%. Also, the “Percent Weed Control TM” value in assay [5] came to 100%. Besides, in assay [6], the “Percent Weed Control SG” value worked out at 100%.

As for `FC(F)(F)c1ccc(C2=NC(C(F)(F)F)(C(F)(F)F)N=C(C(F)(F)C(F)(F)C(F)(F)F)O2)cc1` [Compound 30, 2-(heptafluoropropyl)-4,4-bis(trifluoromethyl)-6-{(4-trifluoromethyl)phenyl}-4H-1,3,5-oxadiazine], in assay [7], the “Percent Weed Control PS” value was 100%. Besides, the “Percent Weed Control BG” value in assay [1] came to 100%. Besides, the “Percent Weed Control VL” value in assay [3] amounted to 100%. The “Percent Weed Control GF” value in assay [4] came to 100%. Further, the “Percent Weed Control TM” value in assay [5] is listed as 100%. The “Percent Weed Control SG” value in assay [6] amounted to 100%.
